{
  "source": "ChEMBL document CHEMBL4020762",
  "about": "“Protective effect of lanostane triterpenoids from the sclerotia of Poria cocos Wolf against cisplatin-induced apoptosis in LLC-PK1 cells” (2017)",
  "key": {"LLC-PK1 [1]": {"system": "LLC-PK1", "assay": "Renoprotective activity in pig LLC-PK1 cells assessed as inhibition of cisplatin-induced damage by measuring cell viability at 50 to 100 uM preincubated for 2 hrs followed by cisplatin addition after 24 hrs by Ez-Cytox reagent based assay (reference value: 60%)", "format": "functional, Sus scrofa"}, "LLC-PK1 [2]": {"system": "LLC-PK1", "assay": "Renoprotective activity in pig LLC-PK1 cells assessed as inhibition of cisplatin-induced apoptosis by measuring apoptotic cells at 50 to 100 uM preincubated for 2 hrs followed by cisplatin addition after 24 hrs by annexin-V Alexa Fluor488/propidium iodide staining based cytometric method (reference value: 26.3%)", "format": "functional, Sus scrofa"}, "Sus scrofa [3]": {"species": "Sus scrofa", "assay": "Inhibition of cisplatin-induced increase in phosphorylated JNK levels in pig LLC-PK1 cells at 50 to 100 uM pretreated for 2 hrs followed by cisplatin addition after 24 hrs by radioimmunoprecipitation assay", "format": "cell-based"}, "LLC-PK1 [4]": {"system": "LLC-PK1", "assay": "Renoprotective activity in pig LLC-PK1 cells assessed as inhibition of cisplatin-induced increase in caspase-3 cleavage at 50 to 100 uM preincubated for 2 hrs followed by cisplatin addition after 24 hrs by radioimmunoprecipitation assay", "format": "functional, cell-based", "conditions": "Sus scrofa"}, "Sus scrofa [5]": {"species": "Sus scrofa", "assay": "Inhibition of cisplatin-induced increase in phosphorylated p38 MAPK levels in pig LLC-PK1 cells at 50 to 100 uM pretreated for 2 hrs followed by cisplatin addition after 24 hrs by radioimmunoprecipitation assay", "format": "cell-based"}, "LLC-PK1 [6]": {"system": "LLC-PK1", "assay": "Renoprotective activity in pig LLC-PK1 cells assessed as inhibition of cisplatin-induced damage by measuring increase in cell viability preincubated for 2 hrs followed by cisplatin addition after 24 hrs by Ez-Cytox reagent based assay", "format": "functional", "conditions": "Sus scrofa"}, "A2780 [7]": {"system": "A2780", "assay": "Potentiation of cisplatin-induced cytotoxicity against human A2780 cells up to 100 uM after 24 hrs in presence of cisplatin by Ez-Cytox reagent based assay", "format": "functional, cell-based"}, "Sus scrofa [8]": {"species": "Sus scrofa", "assay": "Inhibition of cisplatin-induced increase in phosphorylated ERK levels in pig LLC-PK1 cells at 50 to 100 uM pretreated for 2 hrs followed by cisplatin addition after 24 hrs by radioimmunoprecipitation assay", "format": "cell-based"}, "LLC-PK1 [9]": {"system": "LLC-PK1", "assay": "Renoprotective activity in pig LLC-PK1 cells assessed as inhibition of cisplatin-induced damage by measuring increase in cell viability at 10 to 100 uM preincubated for 2 hrs followed by cisplatin addition after 24 hrs by Ez-Cytox reagent based assay", "format": "functional", "conditions": "Sus scrofa"}, "A2780 [10]": {"system": "A2780", "assay": "Potentiation of cisplatin-induced cytotoxicity against human A2780 cells after 24 hrs in presence of cisplatin by Ez-Cytox reagent based assay", "format": "functional, cell-based"}},
  "note": "Calls of active or inactive are those of the source. The rule behind the calls is not given here.",
  "data": [
    {"molecule": "C=C(CC[C@@H](C(=O)O)[C@H]1CC[C@@]2(C)C3=CC[C@H]4C(C)(C)[C@@H](OC(C)=O)CC[C@]4(C)C3=CC[C@]12C)C(C)C", "values": [
      {"measurement": "inhibition (INH)", "setting": "LLC-PK1 [1]", "value": "<=80%"},
      {"measurement": "inhibition (INH)", "setting": "LLC-PK1 [2]", "value": 4.3, "unit": "%"},
      {"measurement": "inhibition", "setting": "Sus scrofa [3]", "value": "Active"},
      {"measurement": "inhibition", "setting": "LLC-PK1 [4]", "value": "Active"},
      {"measurement": "inhibition", "setting": "Sus scrofa [5]", "value": "Active"},
      {"measurement": "inhibition", "setting": "LLC-PK1 [6]", "value": "Dose-dependent effect"},
      {"measurement": "Activity", "setting": "A2780 [7]", "value": "Active"},
      {"measurement": "inhibition", "setting": "Sus scrofa [8]", "value": "Active"}
    ]},
    {"molecule": "O=c1c(O)c(-c2ccc(O)c(O)c2)oc2cc(O)cc(O)c12", "values": [
      {"measurement": "inhibition", "setting": "LLC-PK1 [9]", "value": "Active"}
    ]},
    {"molecule": "CC(=O)O[C@H]1CC[C@]2(C)C3=CC[C@]4(C)[C@@H]([C@@H](CCC=C(C)C)C(=O)O)CC[C@@]4(C)C3=CC[C@H]2C1(C)C", "values": [
      {"measurement": "Activity", "setting": "A2780 [10]", "value": "inactive"},
      {"measurement": "inhibition", "setting": "LLC-PK1 [6]", "value": "Dose-dependent effect"}
    ]}
  ]
}
